Test results published in patent US5106951A, “Antibody conjugates” (NeoRx Corporation, priority 1989, dated 1992).
pKd: −log10 of the molar value.

Experiments:
Assay in all cases: Binding of doxorubicin by synthetic oligopeptide, absorbance titration
[1] = target: synthetic oligopeptide, Peptide 10, EEK(Fmoc)GK(Fmoc)EEGGC; conditions: pH 7.0 0.1M phosphate buffer; doxorubicin absorption at 475 nm or 565 nm titrated with peptide
Text: (§1) Experiments have been conducted to assess the use of synthetic oligopeptides to bind the drug doxorubicin. Binding was followed by changes in the visible spectrum of doxorubicin, and analyzed by titrating the drug absorption spectrum at 475 nm or 565 nm with varying concentrations of peptide, in pH 7.0 0.1M phosphate buffer. Binding curves were fit to a single hyperbola with the program Enzfitter (Elsevier-Biosoft). These peptides were designed to test the effectiveness in intercalating doxorubicin of a 1,3-spacing between amino acids containing aromatic groups in their side chains (i.e., a single non-aromatic amino acid intervenes between the two residues having aromatic side chains). The amino acids are C, cys; K, lys; W, trp; G, gly; E, glu; D, asp; Fmoc, 9-fluorenylmethoxycarbonyl, attached to the lysine epsilon-amino group; and MIANS, 2-(4'-maleimidylanilino)naphthalene-6-sulfonic acid attached to cysteine.

[2] = target: synthetic oligopeptide, Peptide 4, KK(Fmoc)GK(Fmoc)KGGC; conditions: pH 7.0 0.1M phosphate buffer, doxorubicin absorption at 475 nm or 565 nm titrated with peptide
Text: as §1

[3] = target: synthetic oligopeptide, Peptide 7, EK(Fmoc)GK(Fmoc)EGGC; conditions: pH 7.0 0.1M phosphate buffer; 1,3 spacing of aromatic side chains
Text: as §1

[4] = target: synthetic oligopeptide, Peptide 3, […]-amide; conditions: pH 7.0 0.1M phosphate buffer, doxorubicin absorption at 475 nm or 565 nm titrated with peptide
Text: as §1

[5] = target: synthetic oligopeptide, Peptide 9, EK(Fmoc)EK(Fmoc)EGGC; conditions: pH 7.0 0.1M phosphate buffer, doxorubicin absorption at 475 nm or 565 nm titrated with peptide
Text: as §1

[6] = target: synthetic oligopeptide, Peptide 2, CKWGWGWK-amide; conditions: pH 7.0 0.1M phosphate buffer, doxorubicin absorption at 475 nm or 565 nm titrated with peptide
Text: as §1

[7] = target: synthetic oligopeptide, Peptide 1, CKWGWK-amide; conditions: pH 7.0 0.1M phosphate buffer, doxorubicin absorption at 475 nm or 565 nm titrated with peptide
Text: as §1

[8] = target: synthetic oligopeptide, Peptide 8, DK(Fmoc)GK(Fmoc)DGGC (DK(Fmoc)GK(Fmoc)DGGC-amide); conditions: 50 μM doxorubicin in 0.1M phosphate buffer at pH 7.0, 475 nm, fit to single hyperbola; read-out: Kd (apparent dissociation constant)
Text: as §1
No absorbance change was observed when the oligopeptide was added to buffer in the absence of doxorubicin. […] Oligopeptide carrier alone was added to the reference cuvette. The binding constant is derived from the nonlinear least squares best fit to a single hyperbola using the program Enzfitter (Elsevier-Biosoft), yielding an apparent dissociation constant of 22 μM.

[9] = target: synthetic oligopeptide, Peptide 5, EK(Fmoc)GGK(Fmoc)EGGC; conditions: pH 7.0 0.1M phosphate buffer, 1,4 spacing of aromatic side chains
Text: as §1, with “These peptides were designed to test the effectiveness in intercalating doxorubicin of a 1,3-spacing between amino acids containing aromatic groups in their side chains (i.e., a single non-aromatic amino acid intervenes between the two residues having aromatic side chains).” left out

[10] = target: synthetic oligopeptide, Peptide 6, EK(Fmoc)K(Fmoc)EGGC; conditions: pH 7.0 0.1M phosphate buffer, 1,2 spacing of aromatic side chains
Text: as §1, with “These peptides were designed to test the effectiveness in intercalating doxorubicin of a 1,3-spacing between amino acids containing aromatic groups in their side chains (i.e., a single non-aromatic amino acid intervenes between the two residues having aromatic side chains).” left out

[11] = system: synthetic oligopeptide, Peptide 11, EC(MIANS)GC(MIANS)EGGC(Acm)
Text: as §1
This oligopeptide was prepared by first synthesizing the oligopeptide ECGCEGGC(Acm), wherein "Acm" represents an acetamidomethyl protecting group. The synthesis was conducted using the solid phase methodology of Barany and Merrifield, supra, and Houghten, R. A., Proc Nat. Acad. Sci. USA 82:5131, 1985. The number of cysteine thiols per peptide was 1.8 as measured by titration with Ellman's reagent. […]
The peptide concentration was determined with ninhydrin. […]

COc1cccc2c1C(=O)c1c(O)c3c(c(O)c1C2=O)C[C@@](O)(C(=O)CO)C[C@@H]3O[C@H]1C[C@H](N)[C@H](O)[C@H](C)O1 [Doxorubicin, doxorubicin]
pKd [1]: 4.48
Kd [2]: same
Kd ([2]; listed as doxorubicin): no detectable binding
pKd [3]: 3.55
Kd [4]: same
Kd ([4]; listed as doxorubicin): no detectable binding
Kd [5]: no detectable
Kd ([5]; listed as doxorubicin): binding is not observed
Kd [6]: same
Kd ([6]; listed as doxorubicin): no detectable binding
Kd [7]: no detectable
Kd ([7]; listed as doxorubicin): no detectable binding
pKd [8]: 4.66
Kd [9]: same
Kd ([9]; listed as doxorubicin): the same result is obtained
Kd [10]: same
Kd ([10]; listed as doxorubicin): undetectable binding
improvement of binding of doxorubicin by MIANS side chain versus FMOC ([11]; MIANS peptide compared with FMOC peptide, 1,3 spacing): about 6 fold
pKd ([11]; pH 7.0 0.1M phosphate buffer, at 565 or 580 nm, read-out: Kd (best-fit apparent dissociation constant)): 4.32
